The text below walks through data of patent US20230233569A1 (Revolution Medicines, Inc., priority 2020, published 2023).

In general, IC50 refers to the concentration needed to halve the response being measured.

Like-named read-outs stand apart in the source and are kept apart here. Some results are limits rather than exact numbers.

One experiment concerns Capan-1 (K-Ras G12V). In words: CellTiter-Glo cell viability assay, 5-day treatment. The experiment is classed as cell-based. Conditions: Homo sapiens, CAPAN-1, 120 h, 5-day treatment; read-out: Capan-1 Cell Viability assay data (K-Ras G12V, IC50). A digest of the protocol: (§1)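 Luminescence read-out after 5 days of compound exposure, with plates first brought to room temperature for roughly 30 minutes. Values are percent of averaged DMSO wells, fitted by four-parameter logistic regression.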
On the technique in general: Cellular ATP, detected with luciferase, serves as a proxy for viable cell number.

The next experiment relates to NCI-H358 (K-Ras G12C). Described as above. Conditions: Homo sapiens, NCI-H358, 120 h, 5-day treatment; read-out: H358 Cell Viability assay data (K-Ras G12C, IC50). The format is cell-based. A digest of the protocol:
as §1

The target in another experiment is KRAS G12C (Homo sapiens, UniProt P01116+P62937, G12C). Nature of the experiment: Disruption of BRAF RBD interaction with Ras (FRET / MOA assay, with Cyclophilin A). The format is biochemical. A digest of the protocol:
(§2)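 IC50 values reflect loss of K-Ras binding to BRAF RBD, read as a lowered TR-FRET ratio compared with DMSO, driven by compound-mediated K-Ras:Cyclophilin A complex formation. Compound top dose 30 μM final, 3-fold steps, 3 h incubation at 25 °C before a 1.5 h antibody step.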

A further experiment addresses KRAS G12D (Homo sapiens, UniProt P01116+P62937, G12D). Described as above. The experiment is classed as biochemical. A digest of the protocol:
as §2

The target in another experiment is KRAS G12S (Homo sapiens, UniProt P01116+P62937, G12S). The experiment is described as above. The experiment is classed as biochemical. A digest of the protocol:
as §2

The target of the next experiment is KRAS G12V (Homo sapiens, UniProt P01116+P62937, G12V). The experiment is described as above. The format is biochemical. A digest of the protocol: as §2
The target in another experiment is KRAS G13C (Homo sapiens, UniProt P01116+P62937, G13C). The experiment is described as above. The experiment is classed as biochemical. A digest of the protocol:
as §2

The next experiment addresses KRAS G13D (Homo sapiens, UniProt P01116+P62937, G13D). The experiment is described as above. The experiment is classed as biochemical. A digest of the protocol:
as §2

A further experiment addresses KRAS WT (Homo sapiens, UniProt P01116+P62937). Described as above. The format is biochemical. A digest of the protocol:
as §2

Another experiment has as its target NRAS G12C (Homo sapiens, UniProt P01111+P62937, G12C). Described as above. The experiment is classed as biochemical.
The mark [1] stands for this setting: read-out: KRAS G12C FRET data, IC50.
[2] abbreviates: read-out: KRAS G12D FRET data, IC50.
Where [3] appears, read: read-out: KRAS G12S FRET data, IC50.
The mark [4] stands for this setting: KRAS G12V, read-out: KRAS G12V FRET data IC50.
Setting [5] is: read-out: KRAS G13C FRET data, IC50.
Where [6] appears, read: KRAS G13D, read-out: KRAS G13D FRET data IC50.
[7] abbreviates: KRAS WT, read-out: KRAS WT FRET data IC50.
Setting [8] is: NRAS G12C, read-out: NRAS G12C FRET data IC50.

Sequence of KRAS WT (P01116 1-169 isoform P01116-2 limits assumed): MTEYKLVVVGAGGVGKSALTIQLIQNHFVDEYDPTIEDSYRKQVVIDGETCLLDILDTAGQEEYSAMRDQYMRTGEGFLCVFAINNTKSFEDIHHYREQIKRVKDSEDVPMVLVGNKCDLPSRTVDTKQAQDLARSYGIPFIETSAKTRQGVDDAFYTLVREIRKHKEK
Sequence of KRAS WT (P62937 whole entry): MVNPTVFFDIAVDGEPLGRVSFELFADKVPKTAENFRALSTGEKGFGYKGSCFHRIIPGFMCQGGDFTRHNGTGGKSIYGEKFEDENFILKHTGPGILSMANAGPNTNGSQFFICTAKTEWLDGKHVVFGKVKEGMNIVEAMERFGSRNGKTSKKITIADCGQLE
Sequence of KRAS G13D (P01116 1-169 isoform P01116-2 G13D limits assumed): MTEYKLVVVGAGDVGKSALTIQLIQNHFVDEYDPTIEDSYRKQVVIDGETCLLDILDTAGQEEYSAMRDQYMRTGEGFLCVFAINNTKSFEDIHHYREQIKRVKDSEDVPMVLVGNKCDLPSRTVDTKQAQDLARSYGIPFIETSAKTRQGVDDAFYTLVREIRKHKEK
Sequence of KRAS G13D (P62937 whole entry): as the sequence (P62937 whole entry) above
Sequence of NRAS G12C (P01111 whole entry G12C): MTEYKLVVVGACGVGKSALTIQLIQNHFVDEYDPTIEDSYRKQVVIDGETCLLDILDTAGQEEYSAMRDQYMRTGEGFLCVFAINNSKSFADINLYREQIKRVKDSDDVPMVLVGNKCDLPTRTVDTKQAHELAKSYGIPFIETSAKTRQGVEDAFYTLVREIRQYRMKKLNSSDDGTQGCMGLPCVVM
Sequence of NRAS G12C (P62937 whole entry): as the sequence (P62937 whole entry) above
Sequence of KRAS G12S (P01116 1-169 isoform P01116-2 G12S limits assumed): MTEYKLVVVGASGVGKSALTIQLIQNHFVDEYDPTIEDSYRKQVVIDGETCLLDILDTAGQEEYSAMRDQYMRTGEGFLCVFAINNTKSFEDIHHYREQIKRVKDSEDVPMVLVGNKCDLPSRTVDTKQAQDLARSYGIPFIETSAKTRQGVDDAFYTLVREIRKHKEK
Sequence of KRAS G12S (P62937 whole entry): as the sequence (P62937 whole entry) above
Sequence of KRAS G12C (P01116 1-169 isoform P01116-2 G12C): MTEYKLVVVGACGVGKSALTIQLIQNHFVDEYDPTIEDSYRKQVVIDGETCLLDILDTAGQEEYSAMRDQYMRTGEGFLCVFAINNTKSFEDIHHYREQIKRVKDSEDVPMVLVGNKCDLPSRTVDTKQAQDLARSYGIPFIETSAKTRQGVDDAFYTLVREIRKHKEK
Sequence of KRAS G12C (P62937 whole entry): as the sequence (P62937 whole entry) above
Sequence of KRAS G12V (P01116 1-169 isoform P01116-2 G12V limits assumed): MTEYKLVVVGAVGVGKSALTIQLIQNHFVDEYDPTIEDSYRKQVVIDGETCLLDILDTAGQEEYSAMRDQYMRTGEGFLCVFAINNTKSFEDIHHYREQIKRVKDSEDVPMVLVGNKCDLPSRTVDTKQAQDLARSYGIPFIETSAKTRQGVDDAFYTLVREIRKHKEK
Sequence of KRAS G12V (P62937 whole entry): as the sequence (P62937 whole entry) above
Sequence of KRAS G12D (P01116 1-169 isoform P01116-2 G12D limits assumed): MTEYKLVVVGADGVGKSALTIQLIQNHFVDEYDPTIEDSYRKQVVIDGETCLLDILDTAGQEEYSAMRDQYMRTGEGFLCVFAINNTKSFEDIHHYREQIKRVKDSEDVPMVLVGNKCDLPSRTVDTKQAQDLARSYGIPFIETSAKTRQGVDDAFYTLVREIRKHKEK
Sequence of KRAS G12D (P62937 whole entry): as the sequence (P62937 whole entry) above
Sequence of KRAS G13C (P01116 1-169 isoform P01116-2 G13C): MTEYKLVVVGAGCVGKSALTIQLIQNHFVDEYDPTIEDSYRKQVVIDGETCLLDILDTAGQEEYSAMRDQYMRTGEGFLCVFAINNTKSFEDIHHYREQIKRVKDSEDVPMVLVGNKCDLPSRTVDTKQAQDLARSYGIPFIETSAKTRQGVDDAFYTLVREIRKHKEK
Sequence of KRAS G13C (P62937 whole entry): as the sequence (P62937 whole entry) above

With `CCn1c(-c2cccnc2[C@H](C)OC)c2c3cc(ccc31)-c1cc(O)cc(c1)C[C@H](NC(=O)[C@H](C(C)C)N(C)C(=O)C1CCN3CCOCC13)C(=O)N1CCC[C@H](N1)C(=O)OCC(C)(C)C2` (stereo partly drawn) [Example A123], the IC50 in the experiment with Capan-1 (K-Ras G12V) lay within 100 to 1000 nM; in the experiment on NCI-H358 (K-Ras G12C) it was 100 to 1000 nM; against KRAS G12C (KRAS G12C FRET data, IC50) it was 100 to 1000 nM; on KRAS G12D (KRAS G12D FRET data, IC50), 100 to 1000 nM; at KRAS G12S (KRAS G12S FRET data, IC50), 100 to 1000 nM; at KRAS G12V (KRAS G12V FRET data IC50, KRAS G12V) it was 100 to 1000 nM. Also, the IC50 on KRAS G13C (KRAS G13C FRET data, IC50) was 10 to 100 nM; against KRAS G13D (KRAS G13D FRET data IC50, KRAS G13D) it was 100 to 1000 nM; at KRAS WT (KRAS WT FRET data IC50, KRAS WT), 100 to 1000 nM; at NRAS G12C (NRAS G12C FRET data IC50, NRAS G12C) it was 100 to 1000 nM.
For the compound `CCn1c(-c2cccnc2[C@H](C)OC)c2c3cc(ccc31)-c1cc(O)cc(c1)C[C@H](NC(=O)[C@H](C(C)C)N(C)C(=O)C1CNC1)C(=O)N1CCC[C@H](N1)C(=O)OCC(C)(C)C2` [Example A125], the IC50 in the experiment with Capan-1 (K-Ras G12V) fell in the range of 1000 to 10000 nM; in the experiment on NCI-H358 (K-Ras G12C) it was 1000 to 10000 nM; at KRAS G12C (setting [1]), 10 to 100 nM; at KRAS G12D (setting [2]), 10 to 100 nM; at KRAS G12S (setting [3]), 10 to 100 nM; on KRAS G12V (setting [4]), 100 to 1000 nM. For the same compound, the IC50 at KRAS G13C (setting [5]), at KRAS G13D (setting [6]), on KRAS WT (setting [7]) and at NRAS G12C (setting [8]) was 10 to 100 nM each time.
With `CCn1c(-c2cccnc2[C@H](C)OC)c2c3cc(ccc31)-c1cc(O)cc(c1)C[C@H](NC(=O)[C@H](C(C)C)N(C)C(=O)Cc1cc[nH]n1)C(=O)N1CCC[C@H](N1)C(=O)OCC(C)(C)C2` [Example A126], the IC50 fell in the range of 100 to 1000 nM in the experiment with Capan-1 (K-Ras G12V); 100 to 1000 nM with NCI-H358 (K-Ras G12C); 10 to 100 nM at KRAS G12C (setting [1]); 100 to 1000 nM on KRAS G12D (setting [2]); 100 to 1000 nM at KRAS G12S (setting [3]); 100 to 1000 nM at KRAS G12V (setting [4]). Moreover, the IC50 at KRAS G13C (setting [5]) is 10 to 100 nM; on KRAS G13D (setting [6]) it was 100 to 1000 nM; at KRAS WT (setting [7]) it was 10 to 100 nM; on NRAS G12C (setting [8]), 100 to 1000 nM.
Turning to `CCn1c(-c2cccnc2[C@H](C)OC)c2c3cc(ccc31)-c1cc(O)cc(c1)C[C@H](NC(=O)[C@H](C(C)C)N(C)C(=O)[C@H]1CCN[C@H]1C)C(=O)N1CCC[C@H](N1)C(=O)OCC(C)(C)C2` [Example A127], the IC50 is greater than 10000 nM in the experiment with Capan-1 (K-Ras G12V); 1000 to 10000 nM with NCI-H358 (K-Ras G12C); 10 to 100 nM at KRAS G12C (setting [1]); 10 to 100 nM at KRAS G12D (setting [2]); 10 to 100 nM at KRAS G12S (setting [3]); 100 to 1000 nM at KRAS G12V (setting [4]). Moreover, the IC50 on KRAS G13C (setting [5]), at KRAS G13D (setting [6]), at KRAS WT (setting [7]) and on NRAS G12C (setting [8]) was 10 to 100 nM each time.
Turning to `CCn1c(-c2cccnc2[C@H](C)OC)c2c3cc(ccc31)-c1cc(O)cc(c1)C[C@H](NC(=O)[C@H](C(C)C)N(C)C(=O)[C@@H]1CCNC1)C(=O)N1CCC[C@H](N1)C(=O)OCC(C)(C)C2` [Example A129], the IC50 lay in the range of 1000 to 10000 nM with Capan-1 (K-Ras G12V); 1000 to 10000 nM in the experiment with NCI-H358 (K-Ras G12C); 10 to 100 nM on KRAS G12C (setting [1]); 10 to 100 nM on KRAS G12D (setting [2]); 10 to 100 nM on KRAS G12S (setting [3]); 100 to 1000 nM on KRAS G12V (setting [4]). In addition, the IC50 on KRAS G13C (setting [5]), on KRAS G13D (setting [6]), on KRAS WT (setting [7]) and at NRAS G12C (setting [8]) was 10 to 100 nM in each case.
Turning to `CCn1c(-c2cccnc2[C@H](C)OC)c2c3cc(ccc31)-c1cc(O)cc(c1)C[C@H](NC(=O)[C@H](C(C)C)N(C)C(=O)C1CC3CC1CN3)C(=O)N1CCC[C@H](N1)C(=O)OCC(C)(C)C2` (stereo partly drawn) [Example A133], the IC50 with Capan-1 (K-Ras G12V) was greater than 10000 nM; in the experiment on NCI-H358 (K-Ras G12C), greater than 10000 nM; at KRAS G12C (setting [1]), 100 to 1000 nM; at KRAS G12D (setting [2]), 10 to 100 nM; at KRAS G12S (setting [3]), 100 to 1000 nM; on KRAS G12V (setting [4]), 1000 to 10000 nM. Further, the half-maximal inhibitory concentration (IC50) at KRAS G13C (setting [5]) lay in the range of 10 to 100 nM; on KRAS G13D (setting [6]), 10 to 100 nM; at KRAS WT (setting [7]) it was 100 to 1000 nM; at NRAS G12C (setting [8]), 100 to 1000 nM.
